Source: publication PMC8619920, “New Polyesterified Ursane Derivatives from Leaves of Maesa membranacea and Their Cytotoxic Activity” (Molecules, 2021)

Experiments:
Format in all cases: cell-based
[1] = tested on: DU145 human prostate carcinoma cells; assay: Cytotoxicity, LDH assay, DU145 cells; settings: Homo sapiens, DU-145, 24 h, 24 h treatment, 5–100 μg/mL
Protocol: (§1) Cytotoxic activity was tested on human cancer and normal cells, grouped in three panels, namely: prostate, skin and gastrointestinal. The prostate panel consisted of prostate cancer cell lines Du145 (ATCC HTB-81) and PC3 (ATCC CRL-1435), and prostate epithelial cells PNT-2 (ECACC 95012613). Melanoma cell lines A375 (ATCC CRL-1619) and HTB140 (ATCC Hs 294T) together with skin keratinocytes HaCaT (obtained as a kind gift of prof. Marta Michalik, Department of Cell Biology, Jagiellonian University, Kraków, Poland) were included into the skin panel. The gastrointestinal panel of cells comprised colon cancer cell lines Caco-2 (ATCC HTB-37) and HT29 (ATCC HTB-38). Du145 cells were grown in Modified Eagle’s Medium with low (1.0 g/L) glucose concentration, HT29, PC3 and PNT-2 cells in Dulbecco’s Modified Eagle’s Media: F12 HAM Nutrient Mixture, Caco-2 in Modified Eagle’s Medium with NEAA (no-essential amino acids) while melanoma cells and keratinocytes were maintained in Modified Eagle’s Medium with high (4.5 g/L) glucose concentration. The culture media (all supplied by Sigma-Aldrich Co.; St. Louis, MO, USA) contained antibiotics and 10% fetal bovine serum (FBS). All cultures were maintained at 37 °C, in a humidified, 5% CO2 containing, atmosphere.
(§2) The examined triterpenes were diluted in the culture media from freshly made stock solutions in MeOH (10 mg/mL) to the working concentrations (from 0 to 100 μg/mL).
(§3) Cell viability was determined as it was described previously. Cells suspended in the nutrient medium were transferred into 96-well microtiter plates (density 1.5 × 10^4 per well), and preincubated for 24 h (37 °C, 5% CO2). Then, the culture medium was replaced with the medium containing different concentrations of 1 or 2 (1–100 μg/mL). After 24 h of incubation, viability of the cells was determined using colorimetric lactate dehydrogenase (LDH) assay, in comparison to the controls to which corresponding aliquots of MeOH diluted with culture media were added. Cells grown in the medium without the tested compounds were used as control I (negative) and the positive control (control II) was obtained by incubation of the cells in the medium containing 1% Triton X-100. LDH released from the damaged cells into the cell culture medium was quantified by measuring the absorbance at 490 nm using Synergy II Biotek (BioTek Instruments, Winooski, VT, USA) microplate reader. Cytotoxicities of the examined compounds were calculated as follows: [(absorbance of the tested sample − absorbance of control I)/(absorbance of control II − absorbance of control I)] × 100. Results were means of three independent measurements (± SD). Doxorubicin (Ebewe Pharma GmbH., Unterach, Austria) was used as a reference cytostatic drug. The IC50 values were determined by plotting the percentage viability of the cells versus concentration and the adequate calculations made using AAT Bioquest website program (https://www.aatbio.com/tools/ic50-calculator, accessed on 29 October 2021).

[2] = tested on: PNT-2 human normal prostate epithelium cells; assay: Cytotoxicity, LDH assay, PNT-2 cells; settings: Homo sapiens, PNT2; 24 h treatment, 5–100 μg/mL
Protocol: as §1, §2, §3

[3] = tested on: HT29 human colon adenocarcinoma cells; assay: Cytotoxicity, LDH assay, HT29 cells; settings: Homo sapiens, HT-29; 24 h treatment, 5–100 μg/mL
Protocol: as §1, §2, §3

[4] = tested on: PC3 human prostate adenocarcinoma cells; assay: Cytotoxicity, LDH assay, PC3 cells; settings: Homo sapiens, PC-3, 24 h, 24 h treatment, 5–100 μg/mL
Protocol: as §1, §2, §3

[5] = tested on: Caco-2 human colon adenocarcinoma cells; assay: Cytotoxicity, LDH assay, Caco-2 cells; settings: Homo sapiens, Caco-2, 24 h, 24 h treatment, 5–100 μg/mL
Protocol: as §1, §2, §3

[6] = tested on: A375 human malignant melanoma cells; assay: Cytotoxicity, LDH assay, A375 cells; settings: Homo sapiens, A-375; 24 h treatment, 5–100 μg/mL
Protocol: as §1, §2, §3

Question: Which IC50 [1] does the source give for `COc1cccc2c1C(=O)c1c(O)c3c(c(O)c1C2=O)C[C@@](O)(C(=O)CO)C[C@@H]3O[C@H]1C[C@H](N)[C@H](O)[C@H](C)O1` [Doxorubicin, reference compound] here?
Answer: Its IC50 is 3.18 µg/mL.

Question: What about the IC50 [2] of the same compound?
Answer: The IC50 was 1.38 µg/mL.

Question: What about the IC50 [3] of the same compound?
Answer: The IC50 was 1.53 µg/mL.

Question: And the IC50 [4]?
Answer: The IC50 was > 50 µg/mL.

Question: What about the IC50 [5] of the same compound?
Answer: Its IC50 is 3.44 µg/mL.

Question: What about the IC50 [6] of the same compound?
Answer: Its IC50 is 0.59 µg/mL.
